Measured values as given in patent publication US12318452B2, “Degraders of WEE1 kinase” (DANA-FARBER CANCER INSTITUTE, INC., priority 2018, dated 2025).

Test system: MCF10A cells
Experiment: Image-based cell cycle assay in non-transformed mammary epithelial cells
Settings: data not shown
Procedure: HCC1806, BT549, and Kuramochi cells were maintained in RPMI (Corning®, Corning, NY) supplemented with 10% fetal bovine serum (FBS) (Life Technologies™, Carlsbad, CA) and 1% penicillin/streptomycin (Corning, Corning®, NY). OVCAR8 cells were maintained as above with the addition of 2 mM L-glutamine (Life Technologies™, Carlsbad, CA). MCF10A cells were maintained in a 1:1 mix of DMEM:F12 supplemented with 5% horse serum (Life Technologies™ Carlsbad, CA), 1% penicillin/streptomycin (Corning®, Corning, NY), 20 ng/ml EGF (Peprotech®, Rocky Hill, NJ), 500 ng/ml hydrocortisone (Sigma-Aldrich®, St. Louis, MO), 10 μg/ml insulin (Sigma-Aldrich®, St. Louis, MO), and 100 ng/ml cholera toxin (Sigma-Aldrich®, St. Louis, MO). COV362 cells were maintained in DMEM (Corning®, Corning, NY) supplemented with 10% FBS (Life Technologies™, Carlsbad, CA), 1% penicillin/streptomycin (Corning®, Corning, NY) and 2 mM L-glutamine (Life Technologies™, Carlsbad, CA). The OCE1 cells were maintained in FOMI (Wit-Fo) (PMID: 24303006) supplemented with 25 ng/ml cholera toxin (Sigma-Aldrich®, St. Louis, MO). […]
Fixed cells were imaged with a 10× objective using an Operetta microscope and analyzed using the Columbus image data storage and analysis system (PerkinElmer®, Waltham, MA). […] The average LDR, EdU and phospho-histone H3 intensities within the nuclear masks were determined. […]

Compound: C=CCn1c(=O)c2cnc(Nc3ccc(N4CCN(CCCNc5cccc6c5C(=O)N(C5CCC(=O)NC5=O)C6=O)CC4)cc3)nc2n1-c1cccc(C(C)(C)O)n1 (stereo not shown) [Compound 13, 4-((3-(4-(4-((2-allyl-1-(6-(2-hydroxypropan-2-yl)pyridin-2-yl)-3-oxo-2,3-dihydro-1H-pyrazolo[3,4-d]pyrimidin-6-yl)amino)phenyl)piperazin-1-yl)propyl)amino)-2-(2,6-dioxopiperidin-3-yl)isoindoline-1,3-dione]
- Effect on mitotic cell number: very little effect
